US10513511B2, “Aqueous suspension formulation comprising 4-(4-(4-(((3R,5R)-5-((1H-1,2,4-triazol-1-yl)methyl)-5-(2,4-difluoro-phenyl)tetrahydrofuran-3-yl)methoxy)-3-methylphenyl) or a pharmaceutically acceptable salt thereof” (PULMOCIDE LIMITED, priority 2015, dated 2019)
In brackets after ≈: the same amount, converted by molar mass.

What was measured:
[1] = tested on: IL-6; assay: Serum IL-6 in Aspergillus fumigatus infected, immunocompromised, neutropenic mice; assay type: in vivo, A/J mice; settings: for IL-6 in serum, % Inhibition / Conc of Biomarkers, IL-6 in serum: therapeutic; for Conc of Biomarkers, IL-6 in serum: mean ± SEM, N = 6
Description: (§1) Aspergillus fumigatus (ATCC 13073 [strain: NIH 5233], American Type Culture Collection, Manassas, Va., USA) was grown on Malt agar (Nissui Pharmaceutical, Tokyo, Japan) plates for 6-7 days at RT (24±1° C.). Spores were aseptically dislodged from the agar plates and suspended in sterile distilled water with 0.05% Tween 80 and 0.1% agar. On the day of infection, spore counts were assessed by haemocytometer and the inoculum was adjusted to obtain a concentration of 1.67×10^8 spores mL^−1 of physiological saline. […] On day 0, animals were infected with the spore suspension (30 μL intra-nasally).
(§2) Test substances were administered intra-nasally (35 μL of a suspension (0.0032-10.0 mg/mL of drug substance in physiological saline) once daily, on days 1, 2 and 3 only (thereby representing a therapeutic treatment regimen). For extended prophylactic treatment, test compounds (35 μL of a suspension of 0.0032 or 0.016 mg/mL in physiological saline) were administered intra-nasally once daily for seven days. One group was dosed 30 min before infection on day 0 but not subsequently, while a second group was further dosed on days 1, 2 and 3 after infection. The effects of these treatment paradigms were compared with those obtained when treatment was restricted in other groups to either one day or 30 min before inoculation and then on days 1, 2 and 3 post infection in both cases. In a final group, dosing was limited still further with animals dosed twice, one day and 30 min before infection only.
(§3) Animal body weights were monitored daily and at 6 hr after the last dose of drug was administered on day 3, the animals were anesthetised, the tracheas cannulated and BALF blood and lung tissue were collected. The levels of IL-6 and TNFα in serum were determined using Quantikine® mouse IL-6 or TNF-α ELISA kit (R&D systems, Inc., Minneapolis, Minn., USA) respectively. Aspergillus GM in serum was determination using Platelia GM-EIA kits (Bio-Rad Laboratories, Redmond, Wash., USA). Cut-off index (COI) was calculated by the formula: Cut-off index=OD in sample/OD in cut-off control provided in kit. For tissue fungal load assays, 100 mg of lung tissue was removed aseptically and homogenized in 0.2 mL of 0.1% agar in sterile distilled water. Serially diluted lung homogenates were plated on Malt agar plates (50 μL/plate), and incubated at 24±1° C. for 72 to 96 h. The colonies of A. fumigatus on each plate were counted and the fungal titre presented herein as CFUs per gram of lung tissue.

[2] = tested on: BEAS2B cells; assay: Cell viability: resazurin assay; assay type: cell-based; settings: at concentrations indicated in Table 4
[3] = tested on: Cladosporium herbarum NCPF2564; assay: Fungus panel screening, CLSI broth microdilution; assay type: cell-based
Description: Fungus panel screening was conducted by Eurofins Panlabs Inc. The MIC and MIC50 values of the test articles were determined following the guidelines of the CLSI: broth microdilution methods for yeast (CLSI M27-A2), (CLSI, 2002) and for filamentous fungi (CLSI M38-A), (CLSI, 2008).

[4] = tested on: TNFα; assay: Serum TNFα in Aspergillus fumigatus infected, immunocompromised, neutropenic mice; assay type: in vivo, A/J mice; settings: for TNFα in serum, % Inhibition / Conc of Biomarkers, TNFα in serum: therapeutic; for Conc of Biomarkers, TNFα in serum: mean ± SEM, N = 6
Description: as §1, §2, §3

[5] = tested on: Aspergillus fumigatus (ATCC 13073); assay: In vivo anti-fungal activity, extended prophylactic dosing in infected immunocompromised neutropenic mice; parameters: species or system A/J mice; settings: for CFU in lung: mean ± SEM, N = 5
Description: as §1
as §2, with “For extended prophylactic treatment, test compounds (35 μL of a suspension of 0.0032 or 0.016 mg/mL in physiological saline) were administered intra-nasally once daily for seven days.” left out
as §3

[6] = serum, title: Therapeutic Treatment
[7] = Days dosed −1 to + 3, 0.64 μg/mL
[8] = Days dosed −1 to + 3, 3.2 μg/mL
[9] = Days dosed −7 to + 3, 0.64 μg/mL
[10] = Days dosed −7 to + 3, 3.2 μg/mL

Cc1cc(N2CCN(c3ccc(C(=O)N[C@H]4CCCC[C@@H]4O)cc3)CC2)ccc1OC[C@@H]1CO[C@@](Cn2cncn2)(c2ccc(F)cc2F)C1 [Compound (Ia), 4-(4-(4-(((3R,5R)-5-((1H-1,2,4-triazol-1-yl)methyl)-5-(2,4-difluorophenyl)tetrahydrofuran-3-yl)methoxy)-3-methylphenyl)piperazin-1-yl)-N-((1S,2S)-2-hydroxycyclohexyl) benzamide]
IL-6 in serum, % Inhibition ([1]; Drug Conc 3.2 μg/mL): 17%
Conc of Biomarkers, IL-6 in serum ([1]; Drug Conc 3.2 μg/mL): 247 ± 185 pg/mL
IL-6 in serum, % Inhibition ([1]; Drug Conc 16 μg/mL): 12%
Conc of Biomarkers, IL-6 in serum ([1]; Drug Conc 16 μg/mL): 262 ± 185 pg/mL
IL-6 in serum, % Inhibition ([1]; Drug Conc 80 μg/mL): 78%
Conc of Biomarkers, IL-6 in serum ([1]; Drug Conc 80 μg/mL): 66.5 ± 32.9 pg/mL
ID50 Values for biomarkers indicated, IL-6 [1, 6]: 50 µg/mL
effect on the viability of BEAS2B bronchial epithelial cells [2]: no or little effect
MIC50 ([3]; 50% inhibition by visual inspection (CLSI)): 0.016 µg/mL (≈ 0.0233 µM)
MIC ([3]; 100% inhibition by visual inspection (CLSI), read-out: MIC100): 0.016 µg/mL (≈ 0.0233 µM)
TNFα in serum, % Inhibition ([4]; Drug Conc 3.2 μg/mL): 20%
Conc of Biomarkers, TNFα in serum ([4]; Drug Conc 3.2 μg/mL): 28.1 ± 13.8 pg/mL
TNFα in serum, % Inhibition ([4]; Drug Conc 16 μg/mL): 38%
Conc of Biomarkers, TNFα in serum ([4]; Drug Conc 16 μg/mL): 21.8 ± 14.6 pg/mL
TNFα in serum, % Inhibition ([4]; Drug Conc 80 μg/mL): 87%
Conc of Biomarkers, TNFα in serum ([4]; Drug Conc 80 μg/mL): 4.7 ± 1.0 pg/mL
ID50 Values for biomarkers indicated, TNFα [4, 6]: 27 µg/mL
CFU in lung, % Inhibition ([5]; Days dosed −1, 0, 3.2 μg/mL): −222%
GM in BALF ([5]; Days dosed −1, 0, 3.2 μg/mL): 4.5 ± 0.63 COI
GM in BALF, % Inhibition ([5]; Days dosed −1, 0, 3.2 μg/mL): −10%
GM in Serum ([5]; Days dosed −1, 0, 3.2 μg/mL): 4.7 ± 0.65 COI
GM in Serum, % Inhibition ([5]; Days dosed −1, 0, 3.2 μg/mL): −21%
CFU in lung ([5]; Days dosed −1, 0, 3.2 μg/mL intranasal): 20.4 ± 15.7 /mg of lung
CFU in lung, % Inhibition [5, 7]: 57%
GM in BALF [5, 7]: 3.9 ± 0.59 COI
GM in BALF, % Inhibition [5, 7]: 5%
GM in Serum [5, 7]: 3.6 ± 0.52 COI
GM in Serum, % Inhibition [5, 7]: 8%
CFU in lung ([5]; Days dosed −1 to + 3, 0.64 μg/mL intranasal): 4.0 ± 5.2 /mg of lung
CFU in lung, % Inhibition [5, 8]: 89%
GM in BALF [5, 8]: 3.4 ± 0.46 COI
GM in BALF, % Inhibition [5, 8]: 17%
GM in Serum [5, 8]: 2.8 ± 0.24 COI
GM in Serum, % Inhibition [5, 8]: 28%
CFU in lung ([5]; Days dosed −1 to + 3, 3.2 μg/mL intranasal): 1.0 ± 1.4 /mg of lung
CFU in lung, % Inhibition ([5]; Days dosed −7 to 0, 3.2 μg/mL): 90%
GM in BALF ([5]; Days dosed −7 to 0, 3.2 μg/mL): 2.9 ± 0.97 COI
GM in BALF, % Inhibition ([5]; Days dosed −7 to 0, 3.2 μg/mL): 29%
GM in Serum ([5]; Days dosed −7 to 0, 3.2 μg/mL): 2.6 ± 0.48 COI
GM in Serum, % Inhibition ([5]; Days dosed −7 to 0, 3.2 μg/mL): 33%
CFU in lung ([5]; Days dosed −7 to 0, 3.2 μg/mL intranasal): 0.9 ± 1.1 /mg of lung
CFU in lung, % Inhibition [5, 9]: 78%
GM in BALF [5, 9]: 3.1 ± 0.85 COI
GM in BALF, % Inhibition [5, 9]: 24%
GM in Serum [5, 9]: 2.6 ± 0.82 COI
GM in Serum, % Inhibition [5, 9]: 33%
CFU in lung ([5]; Days dosed −7 to + 3, 0.64 μg/mL intranasal): 2.0 ± 3.6 /mg of lung
CFU in lung, % Inhibition [5, 10]: 99.6%
GM in BALF [5, 10]: 1.5 ± 0.59 COI
GM in BALF, % Inhibition [5, 10]: 63%
GM in Serum [5, 10]: 1.5 ± 0.85 COI
GM in Serum, % Inhibition [5, 10]: 62%
CFU in lung ([5]; Days dosed −7 to + 3, 3.2 μg/mL intranasal): 0.04 ± 0.08 /mg of lung
